From patent US20260015358A1, “BICYCLIC DERIVATIVES, COMPOSITIONS AND USES THEREOF” (Danatlas Pharmaceuticals Co., Ltd., priority 2023, published 2026)

How the values were obtained:
[1] = molecular target: T1, WRN [UniPro: Q14191 (WRN_HUMAN), N500-C946] (Homo sapiens (Human), UniProt Q14191); test: WRN unwinding assay (FORKF DNA, fluorescence); format: biochemical; conditions: Table 14
[2] = molecular target: T1, WRN [UniPro: Q14191 (WRN_HUMAN), N500-C946]; test: WRN ATPase assay (ADP-Glo); format: biochemical; conditions: WRN enzymatic activity assay

T1 sequence (Q14191 500-946): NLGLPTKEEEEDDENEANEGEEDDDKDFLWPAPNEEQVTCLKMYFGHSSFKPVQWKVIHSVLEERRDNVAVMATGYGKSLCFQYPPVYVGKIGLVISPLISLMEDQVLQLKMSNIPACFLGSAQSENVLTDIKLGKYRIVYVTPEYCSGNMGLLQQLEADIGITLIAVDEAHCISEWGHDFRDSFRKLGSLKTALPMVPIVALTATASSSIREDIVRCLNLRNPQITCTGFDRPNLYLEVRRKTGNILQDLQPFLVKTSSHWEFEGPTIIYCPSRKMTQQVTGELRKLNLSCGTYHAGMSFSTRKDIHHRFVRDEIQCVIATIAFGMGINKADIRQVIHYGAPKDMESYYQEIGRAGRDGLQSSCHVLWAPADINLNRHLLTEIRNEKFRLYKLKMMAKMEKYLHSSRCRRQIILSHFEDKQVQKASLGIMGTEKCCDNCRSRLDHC

SMILES | IC50 [1] [nM] | IC50 [2] [nM]
CCc1c(N2CCN(C(=O)c3cnc4sccc4c3O)CC2)c(=O)n2nc(C3=CCOCC3)nc2n1CC(=O)Nc1ccc(C(F)(F)F)cc1Cl [Example 55, N-(2-Chloro-4-(trifluoromethyl)phenyl)-2-(2-(3,6-dihydro-2H-pyran-4-yl)-5-ethyl-6-(4-(4-hydroxythieno[2,3-b]pyridine-5-carbonyl)piperazin-1-yl)-7-oxo-[1,2,4]triazolo[1,5-a]pyrimidin-4(7H)-yl)acetamide] | < 100 | < 100
CCc1c(N2CCN(C(=O)c3sc4cnccc4c3O)CC2)c(=O)n2nc(C3=CCOCC3)nc2n1CC(=O)Nc1ccc(C(F)(F)F)cc1Cl [Example 74, N-(2-Chloro-4-(trifluoromethyl)phenyl)-2-(2-(3,6-dihydro-2H-pyran-4-yl)-5-ethyl-6-(4-(3-hydroxythieno[2,3-c]pyridine-2-carbonyl)piperazin-1-y1)-7-oxo-[1,2,4]triazolo[1,5-a]pyrimidin-4(7H)-yl)acetamide] | < 100 | < 100
CCc1c(N2CCN(C(=O)CNC(=O)c3cc(F)cc(NC)c3)CC2)c(=O)n2nc(C3=CCOCC3)nc2n1CC(=O)Nc1ccc(C(F)(F)F)cc1Cl [Example 284, N-(2-(4-(4-(2-((2-Chloro-4-(trifluoromethyl)phenyl)amino)-2-oxoethyl)-2-(3,6-dihydro-2H-pyran-4-yl)-5-ethyl-7-oxo-4,7-dihydro-[1,2,4]triazolo[1,5-a]pyrimidin-6-yl)piperazin-1-yl)-2-oxoethyl)-3-fluoro-5-(methylamino)benzamide] | < 100 | < 100
CCc1c(N2CCN(C(=O)CNC(=O)c3ccnc(O)c3)CC2)c(=O)n2nc(C3=CCOCC3)nc2n1CC(=O)Nc1ccc(C(F)(F)F)cc1Cl [Example 279, N-(2-(4-(4-(2-((2-Chloro-4-(trifluoromethyl)phenyl)amino)-2-oxoethyl)-2-(3,6-dihydro-2H-pyran-4-yl)-5-ethyl-7-oxo-4,7-dihydro-[1,2,4]triazolo[1,5-a]pyrimidin-6-yl)piperazin-1-yl)-2-oxoethyl)-2-hydroxyisonicotinamide] | < 100 | < 100
CCc1c(N2CCN(C(=O)CNC(=O)COC)CC2)c(=O)n2nc(C3=CCOCC3)nc2n1CC(=O)Nc1ccc(C(F)(F)F)cc1Cl [Example 174, N-(2-Chloro-4-(trifluoromethyl)phenyl)-2-(2-(3,6-dihydro-2H-pyran-4-yl)-5-ethyl-6-(4-((2-methoxyacetyl)glycyl)piperazin-1-yl)-7-oxo-[1,2,4]triazolo[1,5-a]pyrimidin-4(7H)-yl)acetamide] | < 100 | < 100
CCc1c(N2CCN(C(=O)C(=O)Nc3cc(C)[nH]n3)CC2)c(=O)n2nc(C3=CCOCC3)nc2n1CC(=O)Nc1ccc(C(F)(F)F)cc1Cl [Example 331, 2-(4-(4-(2-((2-Chloro-4-(trifluoromethyl)phenyl)amino)-2-oxoethyl)-2-(3,6-dihydro-2H-pyran-4-yl)-5-ethyl-7-oxo-4,7-dihydro-[1,2,4]triazolo[1,5-a]pyrimidin-6-yl)piperazin-1-yl)-N-(5-methyl-1H-pyrazol-3-yl)-2-oxoacetamide] | < 100 | < 100
CCC(=O)N1CCN(c2c(CC)n(CC(=O)Nc3ccc(C(F)(F)F)cc3Cl)c3nc(C4=CCOCC4)nn3c2=O)CC1 [Example 27, N-(2-Chloro-4-(trifluoromethyl)phenyl)-2-(2-(3,6-dihydro-2H-pyran-4-yl)-5-ethyl-7-oxo-6-(4-propionylpiperazin-1-yl)-[1,2,4]triazolo[1,5-a]pyrimidin-4(7H)-yl)acetamide] | < 100 | 100 to 1000
[2H]C([2H])(NC(=O)c1ccccc1F)C(=O)N1CCN(c2c(CC)n(C([2H])([2H])C(=O)Nc3ccc(C(F)(F)F)cc3F)c3nc(C4=CCOCC4)nn3c2=O)CC1 [Example 225, N-(2-(4-(2-(3,6-Dihydro-2H-pyran-4-yl)-5-ethyl-4-(2-((2-fluoro-4-(trifluoromethyl)phenyl)amino)-2-oxoethyl-1,1-d2)-7-oxo-4,7-dihydro-[1,2,4]triazolo[1,5-a]pyrimidin-6-yl)piperazin-1-yl)-2-oxoethyl-1,1-d2)-2-fluorobenzamide] | < 100 | < 100
CCc1c(N2CCN(C(=O)c3ncn4cccc4c3O)CC2)c(=O)n2nc(C3=CCOCC3)nc2n1CC(=O)Nc1ccc(C(F)(F)F)cc1Cl [Example 202, N-(2-Chloro-4-(trifluoromethyl)phenyl)-2-(2-(3,6-dihydro-2H-pyran-4-yl)-5-ethyl-6-(4-(4-hydroxypyrrolo[1,2-c]pyrimidine-3-carbonyl)piperazin-1-yl)-7-oxo-[1,2,4]triazolo[1,5-a]pyrimidin-4(7H)-yl)acetamide] | 100 to 1000 | 100 to 1000
CCc1c(N2CCN(C(=O)c3cc4c(O)ccnc4o3)CC2)c(=O)n2nc(C3=CCOCC3)nc2n1CC(=O)Nc1ccc(C(F)(F)F)cc1Cl [Example 88, N-(2-Chloro-4-(trifluoromethyl)phenyl)-2-(2-(3,6-dihydro-2H-pyran-4-yl)-5-ethyl-6-(4-(4-hydroxyfuro[2,3-b]pyridine-2-carbonyl)piperazin-1-yl)-7-oxo-[1,2,4]triazolo[1,5-a]pyrimidin-4(7H)-yl)acetamide] | < 100 | < 100
CCc1c(N2CCN(C(=O)CNC(=O)c3ccccc3)CC2)c(=O)n2nc(-c3cnc4c(c3)CCCO4)nc2n1CC(=O)Nc1ccc(C(F)(F)F)cc1Cl [Example 236, N-(2-(4-(4-(2-((2-Chloro-4-(trifluoromethyl)phenyl)amino)-2-oxoethyl)-2-(3,4-dihydro-2H-pyrano[2,3-b]pyridin-6-yl)-5-ethyl-7-oxo-4,7-dihydro-[1,2,4]triazolo[1,5-a]pyrimidin-6-yl)piperazin-1-yl)-2-oxoethyl)benzamide] | 100 to 1000 | 100 to 1000
CCc1c(N2CCN(C(=O)c3nnc(C)[nH]c3=O)CC2)c(=O)n2nc(C3=CCOCC3)nc2n1CC(=O)Nc1ccc(C(F)(F)F)cc1Cl [Example 56, N-(2-Chloro-4-(trifluoromethyl)phenyl)-2-(2-(3,6-dihydro-2H-pyran-4-yl)-5-ethyl-6-(4-(3-methyl-5-oxo-4,5-dihydro-1,2,4-triazine-6-carbonyl)piperazin-1-yl)-7-oxo-[1,2,4]triazolo[1,5-a]pyrimidin-4(7H)-yl)acetamide] | < 100 | < 100
CCc1c(N2CCN(C(=O)C(=O)N(C)C)CC2)c(=O)n2nc(C3=CCOCC3)nc2n1CC(=O)Nc1ccc(C(F)(F)F)cc1Cl [Example 326, 2-(4-(4-(2-((2-Chloro-4-(trifluoromethyl)phenyl)amino)-2-oxoethyl)-2-(3,6-dihydro-2H-pyran-4-yl)-5-ethyl-7-oxo-4,7-dihydro-[1,2,4]triazolo[1,5-a]pyrimidin-6-yl)piperazin-1-yl)-N,N-dimethyl-2-oxoacetamide] | < 100 | 100 to 1000
CCc1c(N2CCN(C(=O)CNC)CC2)c(=O)n2nc(C3=CCOCC3)nc2n1CC(=O)Nc1ccc(C(F)(F)F)cc1Cl [Example 134, N-(2-Chloro-4-(trifluoromethyl)phenyl)-2-(2-(3,6-dihydro-2H-pyran-4-yl)-5-ethyl-6-(4-(methylglycyl)piperazin-1-yl)-7-oxo-[1,2,4]triazolo[1,5-a]pyrimidin-4(7H)-yl)acetamide] | < 100 | < 100
CCc1c(N2CCN(C(=O)Nc3[nH]ncc3C(F)(F)F)CC2)c(=O)n2nc(C3=CCOCC3)nc2n1CC(=O)Nc1ccc(C(F)(F)F)cc1Cl [Example 18, 4-(4-(2-((2-Chloro-4-(trifluoromethyl)phenyl)amino)-2-oxoethyl)-2-(3,6-dihydro-2H-pyran-4-yl)-5-ethyl-7-oxo-4,7-dihydro-[1,2,4]triazolo[1,5-a]pyrimidin-6-yl)-N-(4-(trifluoromethyl)-1H-pyrazol-5-yl)piperazine-1-carboxamide] | 100 to 1000 | 100 to 1000
CCc1c(N2CCN(C(=O)c3cnc4ncsc4c3O)CC2)c(=O)n2nc(C3=CCOCC3)nc2n1CC(=O)Nc1ccc(C(F)(F)F)cc1Cl [Example 81, N-(2-Chloro-4-(trifluoromethyl)phenyl)-2-(2-(3,6-dihydro-2H-pyran-4-yl)-5-ethyl-6-(4-(7-hydroxythiazolo[4,5-b]pyridine-6-carbonyl)piperazin-1-yl)-7-oxo-[1,2,4]triazolo[1,5-a]pyrimidin-4(7H)-yl)acetamide] | < 100 | < 100
CCc1c(N2CCN(C(=O)C(F)N3C(=O)c4ccccc4C3=O)CC2)c(=O)n2nc(C3=CCOCC3)nc2n1CC(=O)Nc1ccc(C(F)(F)F)cc1Cl (centres unmarked) [Example 345, N-(2-chloro-4-(trifluoromethyl)phenyl)-2-(2-(3,6-dihydro-2H-pyran-4-yl)-6-(4-(2-(1,3-dioxoisoindolin-2-yl)-2-fluoroacetyl)piperazin-1-yl)-5-ethyl-7-oxo-[1,2,4]triazolo[1,5-a]pyrimidin-4(7H)-yl)acetamide] | 100 to 1000 | 100 to 1000
CCc1c(N2CCN(C(=O)CNC(=O)Nc3ccccc3C#N)CC2)c(=O)n2nc(C3=CCOCC3)nc2n1CC(=O)Nc1ccc(C(F)(F)F)cc1Cl [Example 187, N-(2-Chloro-4-(trifluoromethyl)phenyl)-2-(6-(4-(((2-cyanophenyl)carbamoyl)glycyl)piperazin-1-yl)-2-(3,6-dihydro-2H-pyran-4-yl)-5-ethyl-7-oxo-[1,2,4]triazolo[1,5-a]pyrimidin-4(7H)-yl)acetamide] | < 100 | < 100
CCc1c(N2CCN(C(=O)CNC(=O)c3ccccc3)CC2)c(=O)n2nc(C3=CCOCC3)nc2n1CC(=O)N(C)c1ccc(C(F)(F)F)cc1Cl [Example 143, N-(2-(4-(4-(2-((2-Chloro-4-(trifluoromethyl)phenyl)(methyl)amino)-2-oxoethyl)-2-(3,6-dihydro-2H-pyran-4-yl)-5-ethyl-7-oxo-4,7-dihydro-[1,2,4]triazolo[1,5-a]pyrimidin-6-yl)piperazin-1-yl)-2-oxoethyl)benzamide] | > 1000 | 100 to 1000
